Results from patent publication US6521631B2, “Heterocyclic sulfonamides” (Hoffmann-La Roche Inc., priority 1999, dated 2003).

Columns and labels:
human ETA receptors = target: T1, human ETA receptors (Homo sapiens, UniProt P25101); assay: Inhibition of 125I-endothelin binding to recombinant human ETA receptors expressed in Baculovirus-infected insect cells; details: recombinant human ETA receptor membranes, 20 pM 125I-endothelin; read-out: IC50, concentration required to inhibit 50% of the specific binding of 125I-endothelin
T1 construct: made in house; host or cells: Baculovirus-infected insect cells (membrane preparation)
T1 sequence (P25101 21-427): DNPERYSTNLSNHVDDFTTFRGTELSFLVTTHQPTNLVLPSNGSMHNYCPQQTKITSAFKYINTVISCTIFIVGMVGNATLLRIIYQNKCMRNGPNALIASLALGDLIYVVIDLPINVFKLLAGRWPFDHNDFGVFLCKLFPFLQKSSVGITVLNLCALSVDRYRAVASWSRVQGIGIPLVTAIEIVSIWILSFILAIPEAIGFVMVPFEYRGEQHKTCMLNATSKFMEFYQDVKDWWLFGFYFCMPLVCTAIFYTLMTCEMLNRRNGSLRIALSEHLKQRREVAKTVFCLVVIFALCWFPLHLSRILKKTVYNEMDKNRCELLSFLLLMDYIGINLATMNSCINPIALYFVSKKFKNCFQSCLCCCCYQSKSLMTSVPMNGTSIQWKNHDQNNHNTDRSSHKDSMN
Procedure: I. Inhibition of Endothelin Binding to Recombinant Human ETA Receptors Expressed in Baculovirus-infected Insect Cells
A cDNA coding for human ETA receptors of human placenta was cloned (M. Adachi, Y.-Y. Yang, Y. Furuichi and C. Miyamoto, BBRC 180, 1265-1272) and expressed in the Baculovirus-insect cell system. Baculovirus-infected insect cells from a 23 l fermenter are centrifuged off (3000×g, 15 minutes, 4° C.) 60 hours after the infection, re-suspended in Tris buffer (5 mM, pH 7.4, 1 mM MgCl2) and again centrifuged. After a further re-suspension and centrifugation the cells are suspended in 800 ml of the same buffer and freeze-dried at −120° C. The cells disintegrate when the suspension in this hypotonic buffer mixture is thawed. After a repeated […]/thawing cycle the suspension is homogenised and centrifuged (25000×g, 15 minutes, 4° C.). After suspension in Tris buffer (75 mM, pH 7.4, 25 mM MgCl2, 250 mM sucrose) 1 ml aliquots (protein content about 3.5 mg/ml) are stored at −85° C.
For the binding assay, the freeze-dried membrane preparations are thawed and, after centrifugation at 20° C. and 25000 g for 10 minutes, re-suspended in assay buffer (50 mM Tris buffer, pH 7.4, containing 25 mM MnCl2, 1 mM EDTA and 0.5% bovine serum albumin). 100 μl of this membrane suspension containing 70 μg of protein are incubated with 50 μl of ^125I-endothelin (specific activity 2200 Ci/mMol) in assay buffer (25000 cpm, final concentration 20 pM) and 100 μl of assay buffer containing varying concentrations of test compound. The incubation is carried out at 20° C. for 2 hours or at 4° C. for 24 hours. The separation of free and membrane-bound radio-ligands is carried out by filtration over a glass fibre filter. The inhibitory activity of compounds of formula (I) determined in this test procedure is given in Table 1 as the IC50, i.e. as the concentration [nM] which is required to inhibit 50% of the specific binding of ^125I-endothelin.

isolated rat aorta rings = details: for pA2: shift to the right of the endothelin-1 dosage-activity curve, endothelium-denuded thorax aorta rings
Procedure: Inhibition of Endothelin-induced Contractions in Isolated Rat Aorta Rings
Rings with a length of 5 mm were cut out from the thorax aorta of adult Wistar-Kyoto rats. The endothelium was removed by lightly rubbing the internal surface. Each ring was immersed at 37° C. in 10 ml of Krebs-Henseleit solution in an isolated bath while gassing with 95% O2 and 5% CO2. The isometric stretching of the rings was measured. The rings were stretched to a pre-tension of 3 g. After incubation for 10 minutes with the test compound or vehicle cumulative dosages of endothelin-1 were added. […] This shift to the right (or “dose ratio”, DR) corresponds to the quotient from the EC50 values of endothelin-1 in the presence and in the absence of antagonist, with the EC50 value denoting the endothelin concentration required for a half-maximum contraction.
The corresponding pA2 value, which is a measure of the activity of the test compound, was calculated using a computer programme according to the following equation from the “dose ratio” DR for each individual dosage-activity curve.
pA2=log(DR−1)−log(antagonist-concentration)

Structure (SMILES)	IC50 (human ETA receptors) [nM]	pA2 (isolated rat aorta rings)	melting point [°C]	EC50 (isolated rat aorta rings; read-out: EC50 of endothelin in the absence of test compounds, endothelin concentration required for a half-maximum contraction, no antagonist) [nM]
COc1ccccc1Oc1c(NS(=O)(=O)c2ccc(C)cn2)nc(-c2ccncc2)nc1OC [Example 1, 5-methyl-pyridine-2-sulfonic acid[6-methoxy-5-(2-methoxy-phenoxy)-2-pyridin-4-yl-pyrimidin-4-yl]-amide]	≤ 50	≧8.0		
COc1ccccc1Oc1c(NS(=O)(=O)c2ccc(C(C)C)cn2)nc(-c2ccncc2)nc1OC [Example 2, 5-isopropyl-pyridine-2-sulfonic acid[6-methoxy-5-(2-methoxy-phenoxy)-2-pyridin-4-yl-pyrimidin-4-yl]-amide]	≤ 50	≧8.0	195 to 197	
C=C(C)c1ccc(S(=O)(=O)Nc2nc(-c3ccncc3)nc(OC)c2Oc2ccccc2OC)nc1 [Example 3, 5-isopropenyl-pyridine-2-sulfonic acid[6-methoxy-5-(2-methoxy-phenoxy)-2-pyridin-4-yl-pyrimidin-4-yl]-amide]	≤ 50			
CC[C@H](C)[C@H](NC(=O)[C@H](CC(=O)O)NC(=O)[C@H](CC(C)C)NC(=O)[C@H](Cc1c[nH]cn1)NC(=O)[C@@H]1CSSC[C@H](N)C(=O)N[C@@H](CO)C(=O)N[C@H]2CSSC[C@H](NC(=O)[C@H](CCC(=O)O)NC(=O)[C@H](CCCCN)NC(=O)[C@H](CC(=O)O)NC(=O)[C@H](CCSC)NC(=O)[C@H](CC(C)C)NC(=O)[C@H](CO)NC(=O)[C@H](CO)NC2=O)C(=O)N[C@@H](C(C)C)C(=O)N[C@@H](Cc2ccc(O)cc2)C(=O)N[C@@H](Cc2ccccc2)C(=O)N1)C(=O)N[C@H](C(=O)N[C@@H](Cc1c[nH]c2ccccc12)C(=O)O)[C@@H](C)CC [endothelin, reference compound]				0.3
